Data: patent US20190309053A1, “PROLONGATION OF SURVIVAL OF AN ALLOGRAFT BY INHIBITING COMPLEMENT ACTIVITY” (Alexion Pharmaceuticals, Inc., priority 2004, published 2019)

Columns and labels:
[1] = test system: C3H heart allografts in BALB/c mice presensitized with C3H skin grafts; assay: Accelerated rejection in presensitized heart transplantation model, allograft survival (Example 4); assay type: in vivo, mouse; settings: BB5.1 40 mg/kg i.p. daily from day -1, cyclosporin A 15 mg/kg s.c. daily, cyclophosphamide 40 mg/kg i.v. days 0 and 1
Description: In these experiments, the presensitization was brought about by prior transplantation of a skin graft. In general, presensitization can occur not only as a result of having received an earlier allograft, but can also be caused by having received multiple blood transfusions or in women who have been pregnant. Besides such presensitization methods, allografts with an ABO mismatch will be rapidly attacked and rejected because of preformed antibodies to the ABO antigens unless steps are taken to prevent such an attack.
(§1) This model is designed to mimic presensitized transplantation in humans, especially in relation to accelerated humoral rejection. Recipient mice were split into eight groups of six to eight mice each. The treatments were as follow.
Group 3″ (BB5.1 alone)—mice were administered the anti-mouse complement monoclonal antibody BB5.1 at a dose of 40 mg/kg body weight delivered intraperitoneally on a daily basis beginning at day −1 and continuing until the endpoint.
Group 4″ (cyclophosphamide alone)—mice were administered cyclophosphamide intravenously at a dose of 40 mg/kg body weight on each of days 0 and 1.
Group 6″ (BB5.1 plus cyclophosphamide)—mice were administered BB5.1 intraperitoneally at a dose of 40 mg/kg body weight on a daily basis beginning at day −1 and continuing until the endpoint. […]

[2] = test system: C3H heart allografts in BALB/c mice presensitized with C3H skin grafts; assay: Histological changes of heart allografts at necropsy (Example 4); assay type: in vivo, mouse; settings: endpoint, 0 normal to 4 marked change
Description: (§2) Tissue samples were fixed in 10% buffered formaldehyde. Specimens were then embedded in paraffin, and sectioned for H&E staining. The microscopic sections were examined in a blinded fashion for severity of rejection by a pathologist. Criteria for graft rejection included the presence of vasculitis, thrombosis, hemorrhage and lymphocyte infiltration. These changes were scored as: 0, no change; 1, minimum change; 2, mild change; 3, moderate change; or 4, marked change.
as §1

[3] = test system: anti-donor specific IgG and IgM antibodies; assay: Flow cytometry of circulating anti-donor antibodies; assay type: in vivo, mouse; settings: presensitized recipients, POD3
Method: The circulating anti-donor specific IgG and IgM antibodies were evaluated in the recipient serum by FACScan flow cytometry (Becton Dickinson, Mountain View, Calif.). Glotz et al., (1993); Tyan et al. (1994). Briefly, C3H mouse splenocytes were isolated and incubated at 37° C. for 30 minutes with serum from naive control and experimental groups. To stain for total IgG, IgG1, IgG2a, IgG2b and IgM, the cells were washed and incubated with FITC-conjugated goat antibody specific for the Fc portion of mouse IgG or with phycoerythrin-conjugated goat antibody specific for the μ-chain of mouse IgM (Jackson ImmunoResearch Laboratories, West Grove, Pa.), or with FITC-conjugated goat anti-mouse IgG1 (CALTAG Laboratories, Burlingame, Calif.), or with FITC-conjugated goat anti-mouse IgG2a (CALTAG), or with FITC-conjugated goat anti-mouse IgG2b (CALTAG). After 1 hour of staining at 4° C., the cells were washed with PBS, resuspended at 5×10^6/mL, and analyzed by flow cytometry for mean channel fluorescence intensity, which represents the antibody-binding reactivity.

[4] = test system: C3H heart allografts in presensitized BALB/c recipients; assay: Heart allograft survival in presensitized recipients (Examples 1-2); assay type: in vivo, mouse; settings: C3H heart in skin-presensitized BALB/c; mean±SD; CsA 15 mg/kg/day s.c., CyP 40 mg/kg/day i.v. day 0 and 1, anti-C5 mAb 40 mg/kg/day i.p.
Description: Rejection was defined as complete necrosis of the skin grafts.
(§3) However, the inhibitory effect of functionally blocking terminal complement cascade at the C5 level in highly sensitized recipients is unknown.

[5] = test system: heart allografts in presensitized mouse recipients; assay: Immunoperoxidase staining of heart allografts; assay type: in vivo; parameters: key to C3 immunoperoxidase staining grade / C5 immunoperoxidase staining grade / CD4 immunoperoxidase staining grade / CD8 immunoperoxidase staining grade / Mac-1 immunoperoxidase staining grade / IgG immunoperoxidase staining grade / IgM immunoperoxidase staining grade: 0, negative; 1+, equivocal; 2+, weak; 3+, moderate; 4+, intense
Description: Four micrometer sections were cut from tissue samples embedded in Tissue-Tek O.C.T gel (Optimum Cutting Temperature, Skura Finetek, Torrance, Calif.) mounted on gelatin-coated glass microscope slides and stained by a standard indirect avidin-biotin immunoperoxidase staining method using an Elite Vectastain ABC kit (Vector Laboratories Inc., Burlingame, Calif.). Specimens were stained for CD4^+ and CD8^+ cells with biotin-conjugated rat anti-mouse CD4 mAb (clone YTS 191.1.2, Cedarlane Laboratories Ltd., Hornby, Ontario, Canada) and biotin-conjugated rat anti-mouse CD8 mAb (clone 53-6.7, Pharmingen, Franklin Lakes, N.J.), respectively. Intragraft monocyte/macrophage infiltration was detected by staining with biotin-conjugated rat anti-mouse Mac-1 mAb (Cedarlane Laboratories Ltd., Hornby, Ontario, Canada). Mouse IgG and IgM deposition in grafts was detected using biotin-conjugated goat anti-mouse-IgG and goat anti-mouse-IgM (Cedarlane). For identification of complement deposition, sections were serially incubated with goat anti-C3 or anti-C5 polyclonal Abs (Quidel, San Diego, Calif.), biotinylated rabbit anti-goat IgG (Vector Laboratories), and HRP-conjugated-streptavidin (Zymed Laboratories, South San Francisco, Calif.). Slides were washed with phosphate-buffered saline between steps, and examined under light microscopy. Negative controls were performed by omitting the primary antibodies. The immunostaining was scored in five high-power fields of each section, and five independent experiments were performed. The sections of immunoperoxidase staining were graded from 0 to 4+ according to the staining intensity: 0, negative; 1+, equivocal; 2+, weak staining; 3+, moderate staining; and 4+, very intensive staining.

[6] = test system: C3H heart allografts in presensitized BALB/c recipients; assay: Graft histology (H&E), presensitized model (Examples 1-2); assay type: in vivo, mouse; settings: at rejection or POD100
Description: as §2, §3

[7] = test system: terminal complement activity; assay: Complement hemolytic assay of recipient sera; assay type: in vivo, mouse; settings: presensitized heart recipients, POD3
Method: The purified anti-C5 mAb was serially diluted twofold (175-0.1 μg/ml) in GVB^2+ buffer (gelatin Veronal-buffered saline: 0.1% gelatin, 141 mM NaCl, 0.5 mM MgCl2, 0.15 mM CaCl2), and 1.8 mM sodium barbital) and added in triplicate (50 μl/well) to a 96-well plate. BALB/c mouse serum was diluted to 40% v/v with GVB^2+ buffer and added […] to the rows of the same 96-well plate such that the final concentration of BALB/c mouse serum in each well was 20%. The plate was then incubated at room temperature for approximately 30 min while chicken erythrocytes were prepared. Chicken erythrocytes were washed 5×1 ml with GVB^2+ buffer and resuspended to a final concentration of 5×10^7/ml in GVB^2+. Four milliliters of the chicken erythrocytes were sensitized by adding anti-chicken RBC polyclonal antibody (Intercell Technologies, Hopewell, N.J., 0.1% v/v) and the cells were incubated at 4° C. for 15 min with frequent vortexing. The cells were then washed 2×1 ml with GVB^2+ and resuspended to a final volume of 2.4 ml in GVB^2+. […] The plate was read at OD 415 nm using a microplate reader and the percentage of hemolysis was determined using this formula: […]
In the current study, terminal complement activity was measured by assessing the ability of recipient mouse sera to lyse antibody presensitized chicken erythrocytes and was compared at the same time-point (POD3).

[8] = test system: cardiac allograft in presensitized rats; settings: cited from earlier work

| Compound | Mean survival time [1] [days] | Hemo (hemorrhage) median histological score [2] | Infar (infarction) median histological score [2] | Lymph (lymphocyte infiltration) median histological score [2] | Throm (thrombosis) median histological score [2] | Vasc (vasculitis) median histological score [2] | circulating anti-donor IgG levels [3] | heart graft survival (grafts were rejected in) [4] [days] | intragraft Mac-1+ cell infiltration (monocytes and macrophages) [5] | C3 immunoperoxidase staining grade ([5]; necropsy POD3) | C5 immunoperoxidase staining grade ([5]; necropsy POD3) | CD4 immunoperoxidase staining grade ([5]; necropsy POD3) | CD8 immunoperoxidase staining grade ([5]; necropsy POD3) | IgG immunoperoxidase staining grade ([5]; necropsy POD3) | IgM immunoperoxidase staining grade ([5]; necropsy POD3) | Mac-1 immunoperoxidase staining grade ([5]; necropsy POD3) | graft histology (pathological features) [6] | terminal complement activity (lysis of antibody presensitized chicken erythrocytes by recipient sera) [7] | time before graft rejection ([8]; Pruitt and Bollinger (1991), similar presensitized rat allograft model, sCR1 alone) | average time at which grafts were rejected ([8]; presensitized rats, cyclosporin A 10 mg/kg/day i.m. from two days prior to transplant, sCR1 single i.v. bolus 15 mg/kg before reperfusion) [days] |
| --- | --- | --- | --- | --- | --- | --- | --- | --- | --- | --- | --- | --- | --- | --- | --- | --- | --- | --- | --- | --- |
| O=P1(N(CCCl)CCCl)NCCCO1 (centres unmarked) [Cyclophosphamide, cyclophosphamide] | 3.3 ± 0.5 | 2.0 | 4.0 | 0.0 | 3.0 | 2.0 | partially down-regulated | 3.3 ± 0.5 | moderate | 3+ | 3+ | 1+ | 1+ | 3+ | 1+ | 3+ | typical pathological features of ACHR | had no effect |  |  |
| sCR1: soluble complement receptor 1; binds complements C3b and C4b |  |  |  |  |  |  |  |  |  |  |  |  |  |  |  |  |  |  | increased time before graft rejection | 44 |
